In ChEMBL document CHEMBL1127202, “Endothelin receptor ligands. replacement net approach to SAR determination of potent hexapeptides” (Bioorg Med Chem Lett, 1993) one finds IC50 data, which are given here for 13 compounds.

Assay [1] has as its target T1, Endothelin-1 receptor (Mus musculus, UniProt Q61614).
T1 sequence (Q61614 whole entry): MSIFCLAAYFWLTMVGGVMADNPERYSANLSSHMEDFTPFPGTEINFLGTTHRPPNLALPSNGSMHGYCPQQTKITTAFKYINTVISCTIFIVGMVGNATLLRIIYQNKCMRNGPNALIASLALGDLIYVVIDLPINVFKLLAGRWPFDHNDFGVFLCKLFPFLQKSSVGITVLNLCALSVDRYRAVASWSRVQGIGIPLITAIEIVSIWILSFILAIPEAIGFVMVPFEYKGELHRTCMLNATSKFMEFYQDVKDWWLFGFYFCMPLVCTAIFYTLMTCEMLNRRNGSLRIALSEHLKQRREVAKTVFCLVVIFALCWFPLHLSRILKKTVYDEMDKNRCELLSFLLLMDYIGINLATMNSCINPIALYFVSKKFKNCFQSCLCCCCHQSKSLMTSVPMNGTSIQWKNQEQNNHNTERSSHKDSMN
The assay can be described thus: Inhibition of [125I]ET1 binding to Endothelin A receptor of murine 3T3 cells. The class given is cell-based, NIH3T3.

Assay [2] concerns the target T2, Endothelin-1 receptor (Homo sapiens, UniProt P25101).
T2 sequence (P25101 whole entry): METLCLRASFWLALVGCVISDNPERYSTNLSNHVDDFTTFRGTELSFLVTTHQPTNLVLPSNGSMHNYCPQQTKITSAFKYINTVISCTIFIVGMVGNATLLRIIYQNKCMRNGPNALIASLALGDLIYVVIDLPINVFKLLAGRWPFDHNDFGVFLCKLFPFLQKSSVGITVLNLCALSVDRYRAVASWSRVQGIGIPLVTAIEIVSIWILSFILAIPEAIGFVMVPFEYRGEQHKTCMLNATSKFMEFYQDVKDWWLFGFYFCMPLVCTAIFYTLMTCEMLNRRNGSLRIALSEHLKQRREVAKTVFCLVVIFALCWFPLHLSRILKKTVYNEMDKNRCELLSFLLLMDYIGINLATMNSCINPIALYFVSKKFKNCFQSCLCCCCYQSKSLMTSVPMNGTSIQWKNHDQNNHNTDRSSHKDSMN
The assay can be described thus: The inhibitory constant was evaluated against Endothelin A receptor.

Assay [3] deals with T1, Endothelin-1 receptor. The assay can be described thus: The compound was tested for the binding affinity against eEndothelin A receptor in murine 3T3 cells using [125I]ET1 as a radioligand. It is filed as cell-based, NIH3T3.

Residues, ends and D or L forms follow the SMILES beside them.

On Endothelin-1 receptor [1], `CC[C@H](C)[C@H](NC(=O)[C@H](CCc1ccccc1)NC(=O)[C@H](CC(=O)O)NC(=O)[C@H](CCCN)NC(=O)[C@@H](Cc1ccccc1)NC(C)=O)C(=O)N[C@@H](Cc1c[nH]c2ccccc12)C(=O)O` returned a concentration for half-maximal inhibition (IC50) of 114 nM. That is a sub-micromolar value.

Take `CC[C@H](C)[C@H](NC(=O)[C@H](CC(=O)O)NC(=O)[C@H](Cc1ccccc1)NC(=O)[C@@H](Cc1ccccc1)NC(C)=O)C(=O)N[C@H](C(=O)N[C@@H](Cc1c[nH]c2ccccc12)C(=O)O)[C@@H](C)CC` (HELM PEPTIDE1{[ac].[dF].F.D.I.I.W}$$$$V2.0): the IC50 on Endothelin-1 receptor [1] was found to be 270 nM.

Take `CC[C@H](C)[C@H](NC(=O)[C@H](CC(=O)O)NC(=O)CN(Cc1ccccc1)C(=O)[C@@H](Cc1ccccc1)NC(C)=O)C(=O)N[C@H](C(=O)N[C@@H](Cc1c[nH]c2ccccc12)C(=O)O)[C@@H](C)CC`: the values for the IC50 against Endothelin-1 receptor [2] and on Endothelin-1 receptor [1] were 30 nM and 12 nM, respectively.

In the case of `CC[C@H](C)[C@H](NC(=O)[C@H](CC(=O)O)NC(=O)[C@H](CC(N)=O)NC(=O)[C@@H](Cc1ccccc1)NC(C)=O)C(=O)N[C@H](C(=O)N[C@@H](Cc1c[nH]c2ccccc12)C(=O)O)[C@@H](C)CC`, the IC50 on Endothelin-1 receptor [1] is 75 nM. That is a double-digit nanomolar value.

On to `CC[C@H](C)[C@H](NC(=O)[C@H](CC(=O)O)NC(=O)[C@H](C)NC(=O)[C@@H](Cc1ccccc1)NC(C)=O)C(=O)N[C@H](C(=O)N[C@@H](Cc1c[nH]c2ccccc12)C(=O)O)[C@@H](C)CC` (HELM PEPTIDE1{[ac].[dF].A.D.I.I.W}$$$$V2.0), for which the IC50 at Endothelin-1 receptor [1] worked out at 57 nM.

As for `CC[C@H](C)[C@H](NC(=O)[C@H](CC(=O)O)NC(=O)[C@H](Cc1ccc(O)cc1)NC(=O)[C@@H](Cc1ccccc1)NC(C)=O)C(=O)N[C@H](C(=O)N[C@@H](Cc1c[nH]c2ccccc12)C(=O)O)[C@@H](C)CC`, the half-inhibitory concentration (IC50) at Endothelin-1 receptor [1] worked out at 77 nM.

Regarding `CC[C@H](C)[C@@H](NC(=O)[C@@H](CC(=O)O)NC(=O)[C@H]1CCCN1C(=O)[C@@H](Cc1ccccc1)NC(C)=O)C(=O)N[C@@H](C(=O)N[C@H](Cc1c[nH]c2ccccc12)C(=O)O)[C@@H](C)CC`, the IC50 at Endothelin-1 receptor [2] was 15 nM; on Endothelin-1 receptor [1] (nih3t3), 45 nM.

`CC[C@H](C)[C@H](NC(=O)[C@H](CC(=O)O)NC(=O)[C@H](CCCN)NC(=O)[C@@H](Cc1ccccc1)NC(C)=O)C(=O)N[C@H](C(=O)N[C@@H](Cc1c[nH]c2ccccc12)C(=O)O)[C@@H](C)CC` (HELM PEPTIDE1{[ac].[dF].[Orn].D.I.I.W}$$$$V2.0) showed an IC50 at Endothelin-1 receptor [3] of 230 nM.

For the compound `CC[C@H](C)[C@H](NC(=O)[C@H](CC(=O)O)NC(=O)[C@@H](Cc1ccccc1)NC(=O)[C@@H](Cc1ccccc1)NC(C)=O)C(=O)N[C@H](C(=O)N[C@@H](Cc1c[nH]c2ccccc12)C(=O)O)[C@@H](C)CC` (HELM PEPTIDE1{[ac].[dF].[dF].D.I.I.W}$$$$V2.0), the concentration for half-maximal inhibition (IC50) at Endothelin-1 receptor [1] turned out to be 98 nM.

The compound `CC[C@H](C)[C@H](NC(=O)[C@H](CC(=O)O)NC(=O)[C@H](Cc1c[nH]c2ccccc12)NC(=O)[C@@H](Cc1ccccc1)NC(C)=O)C(=O)N[C@H](C(=O)N[C@@H](Cc1c[nH]c2ccccc12)C(=O)O)[C@@H](C)CC` showed an IC50 on Endothelin-1 receptor [1] of 79 nM.

The compound `CC[C@H](C)[C@H](NC(=O)[C@H](CC(=O)O)NC(=O)[C@H](CCc1ccccc1)NC(=O)[C@@H](Cc1ccccc1)NC(C)=O)C(=O)N[C@H](C(=O)N[C@@H](Cc1c[nH]c2ccccc12)C(=O)O)[C@@H](C)CC` came in with an IC50 on Endothelin-1 receptor [1] of 70 nM.

On Endothelin-1 receptor [1], `CC[C@H](C)[C@H](NC(=O)[C@H](CC(=O)O)NC(=O)[C@H](CCCN)NC(=O)[C@@H](Cc1c[nH]c2ccccc12)NC(C)=O)C(=O)N[C@H](C(=O)N[C@@H](Cc1c[nH]c2ccccc12)C(=O)O)[C@@H](C)CC` displayed an IC50 of 15 nM.

In the case of `CC[C@H](C)[C@H](NC(=O)[C@H](CC(=O)O)NC(=O)[C@H](CCCN)NC(=O)[C@@H](Cc1ccc(O)cc1)NC(C)=O)C(=O)N[C@H](C(=O)N[C@@H](Cc1c[nH]c2ccccc12)C(=O)O)[C@@H](C)CC`, the IC50 came to 400 nM on Endothelin-1 receptor [2] and 26 nM on Endothelin-1 receptor [1].

The IC50 is the concentration at which inhibition is half-maximal.
